# According to patent US8952024B2, “Herbicidal pyrimidone derivatives” (E I du Pont de Nemours and Company, priority 2009, dated 2015):
# Key:
# Assay type in all cases: in vivo
# [1] = tested on: Italian ryegrass (Lolium multiflorum); test: Test B pre-/postemergence plant response
# Outline: (§1)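 Visual injury, 0–100 scale (100 = complete control), rated against controls after 13 to 15 days in greenhouse. Pre-emergence: seeds in loam/sand soil, treated at planting. Post-emergence: 1- to 4-leaf plants (2 to 18 cm) in peat/vermiculite medium. Compounds formulated in non-phytotoxic solvent with surfactant.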
# [2] = tested on: bermudagrass (Cynodon dactylon); test: Test B pre-/postemergence plant response
# Outline: as §1
# [3] = tested on: galium (catchweed bedstraw, Galium aparine); test: Test B pre-/postemergence plant response
# Outline: as §1
# [4] = tested on: lambsquarters (Chenopodium album); test: Test B pre-/postemergence plant response
# Outline: as §1
# [5] = tested on: nightshade (eastern black nightshade, Solanum ptycanthum); test: Test B pre-/postemergence plant response; settings: Preemergence
# Outline: as §1
# [6] = tested on: pigweed (Amaranthus retroflexus); test: Test B pre-/postemergence plant response
# Outline: as §1
# [7] = tested on: ragweed (common ragweed, Ambrosia elatior); test: Test B pre-/postemergence plant response; settings: Preemergence
# Outline: as §1
# [8] = tested on: sunflower (common oilseed sunflower, Helianthus annuus); test: Test B pre-/postemergence plant response; settings: Preemergence
# Outline: as §1
# [9] = tested on: wheat (Triticum aestivum); test: Test B pre-/postemergence plant response
# Outline: as §1
# [10] = tested on: canarygrass (Phalaris minor); test: Test B postemergence plant response; settings: Postemergence
# Outline: (§2)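 Plants at the 1- to 4-leaf stage (2 to 18 cm tall), grown in pots of peat moss/vermiculite medium with wetting agent and starter nutrients, received postemergence applications of test chemicals. After 13 to 15 days in a greenhouse, injury was rated visually against untreated controls on a 0 (no effect) to 100 (complete control) scale.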
# [11] = tested on: chickweed (Stellaria media); test: Test B postemergence plant response; settings: Postemergence
# Outline: as §2
# [12] = tested on: windgrass (Apera spica-venti); test: Test B postemergence plant response; settings: Postemergence
# Outline: as §2
# [13] = tested on: winter barley (Hordeum vulgare); test: Test B postemergence plant response; settings: Postemergence
# Outline: as §2
# [14] = Postemergence, 31 g ai/ha, 0 to 100 scale (0 no effect, 100 complete control)
# [15] = Postemergence, 250 g ai/ha, scale 0 to 100 (0 no effect, 100 complete control), 13 to 15 days
# [16] = Postemergence, 62 g ai/ha, scale 0 to 100 (0 no effect, 100 complete control)
# [17] = Preemergence, 31 g ai/ha, scale 0 to 100 (0 no effect, 100 complete control)
# [18] = Preemergence, 62 g ai/ha, scale 0 to 100, 0 no effect, 100 complete control
# [19] = Preemergence, 125 g ai/ha, scale 0 to 100, 0 no effect, 100 complete control
# [20] = Preemergence, 250 g ai/ha, 0 to 100 scale
# [21] = Postemergence, 125 g ai/ha, scale 0 to 100 (0 no effect, 100 complete control)
# [22] = 31 g ai/ha, scale 0 to 100 (0 no effect, 100 complete control)
# [23] = 62 g ai/ha, scale 0 to 100, 0 no effect, 100 complete control
# [24] = 125 g ai/ha, scale 0 to 100, 0 no effect, 100 complete control
# [25] = 31 g ai/ha, 0 to 100 scale (0 no effect, 100 complete control)
# [26] = 125 g ai/ha, scale 0 to 100 (0 no effect, 100 complete control)
# [27] = 250 g ai/ha, scale 0 to 100 (0 no effect, 100 complete control), 13 to 15 days
# [28] = 62 g ai/ha, scale 0 to 100 (0 no effect, 100 complete control)
compound,measurement,setting,value
CCCCn1c(C2CC2)ncc(C(=O)C2=C(O)CCCC2=O)c1=O [Compound 193],"Plant response rating, Ryegrass, Italian",[1]; [14],5
same,"Plant response rating, Ryegrass, Italian",[1]; [15],45
same,"Plant response rating, Ryegrass, Italian",[1]; [16],40
same,"Plant response rating, Ryegrass, Italian",[1]; [17],0
same,"Plant response rating, Ryegrass, Italian",[1]; [18],0
same,"Plant response rating, Ryegrass, Italian",[1]; [19],25
same,"Ryegrass, Italian plant response rating",[1]; [20],45
same,"Plant response rating, Bermudagrass",[2]; [14],95
same,"Plant response rating, Bermudagrass",[2]; [21],100
same,"Plant response rating, Bermudagrass",[2]; [15],100
same,"Plant response rating, Bermudagrass",[2]; [16],100
same,"Plant response rating, Bermudagrass",[2]; [17],75
same,"Plant response rating, Bermudagrass",[2]; [18],95
same,"Plant response rating, Bermudagrass",[2]; [19],95
same,Bermudagrass plant response rating,"[2]; Preemergence, 250 g ai/ha, 0 to 100 scale, 0 no effect, 100 complete control",98
same,"Plant response rating, Galium",[3]; [14],75
same,"Plant response rating, Galium",[3]; [21],90
same,"Plant response rating, Galium",[3]; [15],90
same,"Plant response rating, Galium",[3]; [17],75
same,"Plant response rating, Galium",[3]; [18],100
same,"Plant response rating, Galium",[3]; [19],100
same,Galium plant response rating,[3]; [20],100
same,"Plant response rating, Lambsquarters",[4]; [14],98
same,"Plant response rating, Lambsquarters",[4]; [21],98
same,"Plant response rating, Lambsquarters",[4]; [15],100
same,"Plant response rating, Lambsquarters",[4]; [16],98
same,"Plant response rating, Lambsquarters",[4]; [17],100
same,"Plant response rating, Lambsquarters",[4]; [18],100
same,"Plant response rating, Lambsquarters",[4]; [19],100
same,Lambsquarters plant response rating,[4]; [20],100
same,"Plant response rating, Nightshade",[5]; [22],100
same,"Plant response rating, Nightshade",[5]; [23],100
same,"Plant response rating, Nightshade",[5]; [24],100
same,Nightshade plant response rating,"[5]; 250 g ai/ha, 0 to 100 scale",100
same,"Plant response rating, Pigweed",[6]; [14],90
same,"Plant response rating, Pigweed",[6]; [15],100
same,"Plant response rating, Pigweed",[6]; [16],95
same,"Plant response rating, Pigweed",[6]; [17],98
same,"Plant response rating, Pigweed",[6]; [18],100
same,"Plant response rating, Pigweed",[6]; [19],100
same,Pigweed plant response rating,[6]; [20],100
same,"Plant response rating, Ragweed",[7]; [22],100
same,"Plant response rating, Ragweed",[7]; [23],100
same,"Plant response rating, Ragweed",[7]; [24],100
same,Ragweed plant response rating,"[7]; 250 g ai/ha, 0 to 100 scale",100
same,"Plant response rating, Sunflower",[8]; [22],70
same,"Plant response rating, Sunflower",[8]; [23],80
same,"Plant response rating, Sunflower",[8]; [24],80
same,Sunflower plant response rating,"[8]; 250 g ai/ha, 0 to 100 scale",95
same,"Plant response rating, Wheat",[9]; [14],30
same,"Plant response rating, Wheat",[9]; [15],60
same,"Plant response rating, Wheat",[9]; [16],35
same,"Plant response rating, Wheat",[9]; [17],0
same,"Plant response rating, Wheat",[9]; [18],0
same,"Plant response rating, Wheat",[9]; [19],10
same,Wheat plant response rating,[9]; [20],25
same,"Plant response rating, Canarygrass",[10]; [25],5
same,"Plant response rating, Canarygrass",[10]; [26],25
same,"Plant response rating, Canarygrass",[10]; [27],25
same,"Plant response rating, Canarygrass",[10]; [28],5
same,"Plant response rating, Chickweed",[11]; [25],95
same,"Plant response rating, Chickweed",[11]; [26],100
same,"Plant response rating, Chickweed",[11]; [27],100
same,"Plant response rating, Chickweed",[11]; [28],98
same,"Plant response rating, Windgrass",[12]; [25],50
same,"Plant response rating, Windgrass",[12]; [27],75
same,"Plant response rating, Windgrass",[12]; [28],70
same,"Plant response rating, Barley",[13]; [25],0
same,"Plant response rating, Barley",[13]; [26],50
same,"Plant response rating, Barley",[13]; [27],50
same,"Plant response rating, Barley",[13]; [28],0
